Target: T1, SUMO E1 SAE1 Q312A mutant (Homo sapiens, UniProt Q9UBE0+Q9UBT2, Q312A)
T1 construct: GST (N); made in house; host or cells: Escherichia coli BL21
T1 sequence (Q9UBE0 1-346 Q312A): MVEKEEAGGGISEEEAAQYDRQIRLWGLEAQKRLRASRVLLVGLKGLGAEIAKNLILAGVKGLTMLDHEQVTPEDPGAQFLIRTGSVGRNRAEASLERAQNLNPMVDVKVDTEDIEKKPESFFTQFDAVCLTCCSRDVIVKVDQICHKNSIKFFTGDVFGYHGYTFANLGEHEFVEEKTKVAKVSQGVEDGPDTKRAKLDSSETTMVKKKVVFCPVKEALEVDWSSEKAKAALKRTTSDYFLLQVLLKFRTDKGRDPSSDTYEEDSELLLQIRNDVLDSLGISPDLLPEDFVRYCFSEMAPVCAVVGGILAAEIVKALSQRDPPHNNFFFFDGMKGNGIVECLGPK
T1 sequence (Q9UBT2 1-640): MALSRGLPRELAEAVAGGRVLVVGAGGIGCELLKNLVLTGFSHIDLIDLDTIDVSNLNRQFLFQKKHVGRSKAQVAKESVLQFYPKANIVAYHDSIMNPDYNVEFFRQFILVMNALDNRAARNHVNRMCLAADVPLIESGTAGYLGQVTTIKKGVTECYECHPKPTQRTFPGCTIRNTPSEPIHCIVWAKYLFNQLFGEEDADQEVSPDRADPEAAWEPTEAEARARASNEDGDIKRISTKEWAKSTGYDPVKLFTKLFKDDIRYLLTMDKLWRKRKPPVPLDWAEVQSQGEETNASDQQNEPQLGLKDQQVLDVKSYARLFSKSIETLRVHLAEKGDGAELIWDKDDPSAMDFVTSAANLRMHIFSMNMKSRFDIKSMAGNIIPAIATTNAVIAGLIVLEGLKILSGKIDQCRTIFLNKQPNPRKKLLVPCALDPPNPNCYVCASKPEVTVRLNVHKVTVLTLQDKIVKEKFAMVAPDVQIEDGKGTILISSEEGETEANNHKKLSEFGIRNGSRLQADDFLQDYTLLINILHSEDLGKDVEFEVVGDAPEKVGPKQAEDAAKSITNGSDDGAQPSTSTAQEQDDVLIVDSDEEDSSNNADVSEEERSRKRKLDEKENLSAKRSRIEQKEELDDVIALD
Assay: SUMO E1 activity assays with SAE1 Q312A mutant
Format: biochemical
Method: Figure 3 SUMO-specific activating enzyme, E1, is a direct target of N106. Mechanism of action of N106 on individual steps in the SUMOylation cascade in vitro. (a) Inorganic pyrophosphate resulting from ATP hydrolysis in E1-catalysed SUMO-1 activation in the presence of increasing concentration of N106 compound was assessed by fluorogenic pyrophosphate assay kit. Recombinant human SUMO-specific E1 (0.05 μM), human Ubc9 (0.25 μM), human SUMO-1 (12.5 μM) and ATP (1 mM) were incubated with increasing concentration of N106 for 30 min at 37 °C and quantified using a fluorescence microplate reader. (b) The SAE2-SUMO-1 conjugation was detected followed by western blotting with anti-SAE2 antibodies. SUMO E1 (0.05 μM), SUMO-1 (12.5 μM) and ATP (1 mM) were co-incubated with increasing concentration of N106 for 30 min at 37 °C. The reaction mixtures were separated on 7.5% SDS–PAGE gel under non-reducing conditions. (c) E2-SUMO-1 conjugation was visualized by western blotting with anti-Ubc9 antibody. SUMO E1 (0.05 μM), Ubc9 (0.25 μM), SUMO-1 (12.5 μM) and ATP (1 mM) were incubated without or with increasing concentration of N106 for 30 min at 37 °C. […] (e) ATP hydrolytic activity of WT and mutant SUMO E1 are determined. (f) The E1-SUMO-1 conjugation was detected followed by western blot analysis with anti-SAE2 antibody. *The SAE2-SUMO-1 conjugated bands. […]

## COc1ccc(-c2nnc(Nc3nc4c(OC)cccc4s3)o2)cc1 [Compound N106, N-(4-methoxybenzo[d]thiazol-2-yl)-5-(4-methoxyphenyl)-1,3,4-oxadiazol-2-amine]
Q312A mutant
  ATP hydrolysis activity with N106, compared with wild-type protein: significantly lower
Q312A mutant SAE1
  SUMO E1-SUMO and SUMO E2-SUMO conjugations in the presence of N106, compared with WT: weaker
